Laboratory results published in paper PMC6747087, “Characterization of Tachyplesin Peptides and Their Cyclized Analogues to Improve Antimicrobial and Anticancer Properties” (International Journal of Molecular Sciences, 2019).
≈ marks a conversion by molar mass, not a printed value. Residues, ends and D or L forms follow the SMILES beside them.

How the values were obtained:
[1] = Hemolytic activity against human red blood cells; assay type: cell-based; conditions: at 64 µM peptide, human RBCs; read-out: RBCs lysed (hemolysis)
Description: (§1) A small amount of blood was collected from three healthy human donors. The blood was immediately diluted in PBS and centrifuged 4–5 times for 1 min at 4000 rpm to wash and separate the human red blood cells (RBCs). RBCs suspension (0.25% (v/v) in PBS) was incubated with peptides with two-fold serial dilutions of the peptide (highest concentration tested was 128 µM, and the lowest was 0.25 µM) in a 96-well plate. Melittin, a membrane disruptive peptide, was used as control. The plates were incubated for 1 h at 37 °C. After incubation, the plates were centrifuged for 5 min at 1000 rpm to pellet any non-lysed RBCs. A total of 100 µL of the supernatant were transferred to a new 96-well plate. The hemoglobin released into the supernatant from lysed cells was measured by absorbance at 415 nm using the Tecan infinite M1000Pro multiplate reader (Männedorf, Switzerland).

[2] = tested on: human red blood cells (RBCs); test: Hemolytic activity against human red blood cells; assay type: cell-based; conditions: human RBCs 0.25% (v/v), 1 h, 37 °C; mean ± SEM
Description: as §1

E. coli ATCC 25922 = test: MIC against planktonic bacteria (resazurin); assay type: cell-based, Escherichia coli; conditions: Mueller Hinton Broth
Description: (§2) S. aureus ATCC 25923, S. aureus ATCC 6538, E. coli ATCC 25922, and E. coli DC2 CGSC 7139 were grown in Mueller Hinton Broth (Sigma Aldrich, St. Luis, USA). Bacterial cultures in the exponential growth phase were diluted to an OD600nm of 0.001 and seeded into 96-well plates. Peptides at different concentrations, starting at 64 µM and with two-fold serial dilutions (i.e., 64, 32, 16, 8, 4, 2, 1, 0.5, 0.25, 0.125 and 0.0625 µM), were incubated with cells; 0.05% (v/v) resazurin was added to the cultures the next day and the conversion to resorufin was measured after 1 h of incubation at 37 °C using a 565 nm excitation and 584 nm emission wavelength, as above.

E. coli DC2 CGSC 7139 = test: MIC against planktonic bacteria (resazurin); assay type: cell-based, Escherichia coli; conditions: Mueller Hinton Broth
Description: as §2

S. aureus ATCC 25923 = test: MIC against planktonic bacteria (resazurin); assay type: cell-based, Staphylococcus aureus; conditions: Mueller Hinton Broth
Description: as §2

S. aureus ATCC 6538 = test: MIC against planktonic bacteria (resazurin); assay type: cell-based, Staphylococcus aureus; conditions: Mueller Hinton Broth
Description: as §2

[3] = Activity against preformed biofilm (resazurin metabolic activity); assay type: cell-based, Staphylococcus aureus; conditions: 24 h preformed biofilm, 4 h peptide treatment; read-out: CC50 (reduction of 50% of the metabolically active cell population)
Description: S. aureus ATCC 6538 (1 × 10^6 cfu/mL) was cultured in Tryptic Soy Broth, containing 0.25% (w/v) glucose and incubated in 96-well microtiter flat-bottomed polystyrene plates for 24 h at 37 °C. Preformed biofilms were then washed with Mueller Hinton Broth to remove non-adherent cells. Two-fold serial dilutions of each peptide (highest concentration tested was 32 µM and lowest was 0.25 µM) were added to the biofilms for 4 h. Untreated 24 h preformed biofilms were used as a control. The metabolic activity of biofilm-embedded cells was determined using a resazurin reduction fluorometric assay as previously described.

[4] = Cytotoxicity assay (resazurin); assay type: cell-based, Human; conditions: ± SEM, n ≥ 3
Description: Cells were grown in cell culture flasks and incubated in a humidified atmosphere (5% CO2, 37 °C). The cancer cell lines HeLa and the control cell line HaCaT were grown in a DMEM medium supplemented with 1% (v/v) penicillin/streptomycin and 10% (v/v) fetal bovine serum (FBS). The cancer cell lines MM96L, HT144 and WM164 were grown in a RPMI medium supplemented with 1% (v/v) penicillin/[…], 10% (v/v) FBS, 20 mM L-glutamine, and 10 mM sodium pyruvate. Cell cultures were maintained by dilution upon reaching confluence, each 48–72 h. More information about the cell lines is available in Tables S2 and S3.
Cells were seeded into 96-well flat-bottom plates at 5 × 10^3 cells/well and incubated overnight. The medium was removed and replaced with 90 µL serum-free medium, 10 µL of 10x concentrated peptide solutions in PBS were added. PBS was added as blank and 0.1% (v/v) Triton X-100 was used to establish 100% of cell death. After 2 h incubation at 37 °C, 10 µL of filtered 0.05% (w/v) resazurin solution was added to each well [70]. Resazurin is converted to the pink and fluorescent compound resorufin by viable cells. After incubation overnight, the fluorescence intensity (λex = 565 nm and λem = 584 nm) was measured with the Tecan infinite M1000Pro multiplate reader (Männedorf, Switzerland).

in vitro = conditions: 25% (v/v) human serum, 24 h, 37 °C, 50 µM peptide, RP-HPLC peak area vs time zero
Description: The serum stability assay was carried out as previously described with some modifications. Briefly, tachyplesin variants were incubated in 25% (v/v) human serum diluted in phosphate-buffered saline (PBS) at a final concentration of 50 µM at 37 °C. Triplicates were collected at time 0 h and 24 h and the serum proteins were precipitated with acetonitrile (1:3 ratio) supplemented with 3% TFA. Samples were kept on ice for 10 min before centrifugation at 17,000× g for 10 min at 4 °C. The peptide containing supernatant of each sample was harvested and quantified using RP-HPLC (10 to 45% solvent B, 1%/min gradient). The percentage of peptide stability in human serum was calculated by comparing the area of the peptide peak obtained at 24 h to that at time 0 h. A linear peptide containing 18 amino acid residues ([…]) was included as a control susceptible to proteolytic degradation.

[5] = HT144, 2 h peptide in serum-free medium
[6] = HaCaT non-cancerous control, 2 h peptide in serum-free medium
[7] = HeLa, 2 h peptide in serum-free medium
[8] = MM96L, 2 h peptide in serum-free medium
[9] = WM164, 2 h peptide in serum-free medium

Compound	hemolysis [1] [%]	HC50 (concentration required to induce 50% lysis in RBCs) [2] [µM]	MIC (E. coli ATCC 25922) [µM]	MIC (E. coli DC2 CGSC 7139) [µM]	MIC (S. aureus ATCC 25923) [µM]	MIC (S. aureus ATCC 6538) [µM]	Concentration reducing biofilm metabolic activity by 50% [3] [µM]	CC50 [4, 5] [µM]	CC50 [4, 6] [µM]	CC50 [4, 7] [µM]	CC50 [4, 8] [µM]	CC50 [4, 9] [µM]	peptide remaining in human serum (in vitro)
CC[C@H](C)[C@@H]1NC(=O)CNC(=O)[C@H](CCCNC(=N)N)NC(=O)[C@H](Cc2ccc(O)cc2)NC(=O)[C@@H]2CSSC[C@H](NC1=O)C(=O)N[C@@H](Cc1ccc(O)cc1)C(=O)N[C@@H](CCCNC(=N)N)C(=O)N[C@@H](CCCCN)C(=O)N[C@H](C(=O)N[C@@H](CCCNC(=N)N)C(N)=O)CSSC[C@H](NC(=O)[C@H](Cc1c[nH]c3ccccc13)NC(=O)[C@@H](N)CCCNC(=N)N)C(=O)N[C@@H](Cc1ccccc1)C(=O)N[C@@H](CCCNC(=N)N)C(=O)N[C@@H](C(C)C)C(=O)N2 [TII, Tachyplesin II] (HELM PEPTIDE1{R.W.C.F.R.V.C.Y.R.G.I.C.Y.R.K.C.R.[am]}$PEPTIDE1,PEPTIDE1,3:R3-16:R3|PEPTIDE1,PEPTIDE1,7:R3-12:R3$$$V2.0)	56	55.4 ± 6.6	0.125 to 0.5	0.5 to 1	1 to 4	4 to 8	23.1 ± 2.9	2 ± 0.1	3.7 ± 0.2	18 ± 3.9	1.6 ± 0.1	1.6 ± 0.1	
CC[C@H](C)[C@@H]1NC(=O)CNC(=O)[C@H](CCCNC(=N)N)NC(=O)[C@H](Cc2ccc(O)cc2)NC(=O)[C@@H]2CSSC[C@H](NC1=O)C(=O)N[C@@H](Cc1ccc(O)cc1)C(=O)N[C@@H](CCCNC(=N)N)C(=O)N[C@@H](CCCNC(=N)N)C(=O)N[C@H]1CSSC[C@H](NC(=O)[C@H](Cc3c[nH]c4ccccc34)NC(=O)[C@H](CCCCN)NC(=O)CNC(=O)[C@H](CCCNC(=N)N)NC1=O)C(=O)N[C@@H](Cc1ccccc1)C(=O)N[C@@H](CCCNC(=N)N)C(=O)N[C@@H](C(C)C)C(=O)N2 [cTI, Cyclic Tachyplesin I] (HELM PEPTIDE1{C.F.R.V.C.Y.R.G.I.C.Y.R.R.C.R.G.K.W}$PEPTIDE1,PEPTIDE1,1:R3-14:R3|PEPTIDE1,PEPTIDE1,5:R3-10:R3|PEPTIDE1,PEPTIDE1,1:R1-18:R2$$$V2.0)		106.9 ± 21.0	1 (≈ 2.3 µg/mL)	4 (≈ 9.22 µg/mL)	2 to 8	8 (≈ 18.4 µg/mL)	17.8 ± 3.6	1.4 ± 0.1	7.9 ± 0.5	6.7 ± 0.6	1.3 ± 0.1	2.7 ± 0.1	did not degrade
CC[C@H](C)[C@@H]1NC(=O)CNC(=O)[C@H](CCCNC(=N)N)NC(=O)[C@H](Cc2ccc(O)cc2)NC(=O)[C@@H]2CSSC[C@H](NC1=O)C(=O)N[C@@H](Cc1ccc(O)cc1)C(=O)N[C@@H](CCCNC(=N)N)C(=O)N[C@@H](CCCCN)C(=O)N[C@H]1CSSC[C@H](NC(=O)[C@H](Cc3c[nH]c4ccccc34)NC(=O)[C@H](CCCNC(=N)N)NC(=O)CNC(=O)[C@H](CCCNC(=N)N)NC1=O)C(=O)N[C@@H](Cc1ccccc1)C(=O)N[C@@H](CCCNC(=N)N)C(=O)N[C@@H](C(C)C)C(=O)N2 [cTII, Cyclic Tachyplesin II] (HELM PEPTIDE1{C.F.R.V.C.Y.R.G.I.C.Y.R.K.C.R.G.R.W}$PEPTIDE1,PEPTIDE1,1:R3-14:R3|PEPTIDE1,PEPTIDE1,5:R3-10:R3|PEPTIDE1,PEPTIDE1,1:R1-18:R2$$$V2.0)		64.1 ± 9.4	1 to 2	4 to 8	2 to 8	8 (≈ 18.4 µg/mL)	19.4 ± 1.5	0.8 ± 0.04	2.4 ± 0.3	7.2 ± 0.4	1.1 ± 0.1	2.4 ± 0.3	
CC[C@H](C)[C@H](NC(=O)[C@H](CC(C)C)NC(=O)[C@H](CCC(N)=O)NC(=O)CNC(=O)[C@H](CO)NC(=O)CNC(=O)CNC(=O)CNC(=O)CNC(=O)[C@@H](N)CCCCN)C(=O)N[C@@H](CC(=O)O)C(=O)N[C@@H](CO)C(=O)N[C@@H](CCSC)C(=O)N[C@@H](C)C(=O)N[C@@H](CC(N)=O)C(=O)N[C@@H](CO)C(=O)N[C@@H](Cc1ccccc1)C(=O)N[C@H](C(=O)O)C(C)C [KGGGGSGQLIDSMANSFV, reference compound] (H-KGGGGSGQLIDSMANSFV-OH)													fully degraded
CC[C@H](C)[C@@H]1NC(=O)CNC(=O)[C@H](CCCNC(=N)N)NC(=O)[C@H](Cc2ccc(O)cc2)NC(=O)[C@@H]2CSSC[C@H](NC1=O)C(=O)N[C@@H](Cc1ccc(O)cc1)C(=O)N[C@@H](CCCNC(=N)N)C(=O)N[C@@H](CCCCN)C(=O)N[C@H]1CSSC[C@H](NC(=O)[C@H](Cc3c[nH]c4ccccc34)NC(=O)[C@H](CCCCN)NC(=O)CNC(=O)[C@H](CCCNC(=N)N)NC1=O)C(=O)N[C@@H](Cc1ccccc1)C(=O)N[C@@H](CCCNC(=N)N)C(=O)N[C@@H](C(C)C)C(=O)N2 [cTIII, Cyclic Tachyplesin III] (HELM PEPTIDE1{C.F.R.V.C.Y.R.G.I.C.Y.R.K.C.R.G.K.W}$PEPTIDE1,PEPTIDE1,1:R3-14:R3|PEPTIDE1,PEPTIDE1,5:R3-10:R3|PEPTIDE1,PEPTIDE1,1:R1-18:R2$$$V2.0)		>128	1 to 2	4 to 8	2 to 8	8 (≈ 18.2 µg/mL)	18 ± 1.4	0.9 ± 0.03	7.5 ± 0.3	9.3 ± 0.4	1.7 ± 0.1	1.3 ± 0.1	
